The values below come from patent US20090043378A1, “Biocompatible Polymer System for Extended Drug Release” (priority 2007, published 2009).

In brackets after ≈: the same amount, converted by molar mass.

A short description of data set [1]: Octanol-water partition coefficient of zotarolimus. It counts as physicochemical. The source says: In one embodiment, the drug is zotarolimus (Formula 1) ([…], molecular weight=966.5 g/mol), a tetrazole-containing macrocyclic immunosuppressant. […] The mechanism of action of zotarolimus is binding to FKBP12, leading to the formation of a trimeric complex with the protein kinase mTOR (mammalian target of rapamycin) thereby inhibiting its activity. Inhibition of mTOR results in the inhibition of protein phosphorylation events associated with translation of mRNA and cell cycle control.

A short description of another data set: physchem. Type of data set: physicochemical. The text has this: The hydrophobicity of zotarolimus enhances its absorption across the cellular membrane leading to inhibition of neointimal proliferation of the target tissues.
For the next data set, the system named is Monocytic U937 cells. The data set can be described thus: Monocyte adhesion to polymer coated wells (calcein uptake). Type of data set: cell-based.

Experimental for Monocytic U937 cells: Monocytic U937 cells were purchased from ATCC Cell Biology Collection and maintained in culture according to vendor recommendations. U937 cells were seeded at 1×10^5/well onto polymer coated 96 well plates. The cells were stimulated with lipopolysaccharide (LPS) (100 ng/mL) and phorbol-12-myristate-13-acetate (PMA) (100 ng/mL) to induce differentiation and inflammatory activation. […] Adhesion of U937 cells to the polymer scaffold was assessed by calcein uptake as detailed in the following protocol. U937 cells were fluorescently labeled by incubation with calcein (1 mg/mL) for 30 minutes. Calcein is a fluorescent dye hydrolyzed by esterases in viable cells. The percent uptake of calcein is directly proportional to the number of viable cells in the well. The percent of cell adhesion was determined by reading the fluorescent measurements prior to and after gentle PBS washing of the adherent monocytes from the polymer coated plates. […] To calculate the relative percent adhesion, the ratio between the fluorescent measurement prior to and after gentle PBS washing of the adherent monocytes from the polymer coated plates was first determined. […]
In order to evaluate, in vitro, the polymers potential to elicit an inflammatory response, the adhesion of activated monocytes to the components of various polymers were measured, individually and in combination (C10, C19, and C10/C19).

What is called solubility is the concentration that dissolves in the medium under given conditions. The low end stands for little dissolved substance, the high end for much dissolved substance. Turning to `CO[C@H]1C[C@@H]2CC[C@@H](C)[C@@](O)(O2)C(=O)C(=O)N2CCCC[C@H]2C(=O)O[C@H]([C@H](C)C[C@@H]2CC[C@H](n3cnnn3)[C@H](OC)C2)CC(=O)[C@H](C)/C=C(\C)[C@@H](O)[C@@H](OC)C(=O)[C@H](C)C[C@H](C)/C=C/C=C/C=C/1C` [zotarolimus], the octanol-water partition coefficient in data set [1] (pH 6.5) and in data set [1] (pH 7.4) was greater than 4.5 in each case. Further, the solubility is 0.47 µg/mL (≈ 0.486 µM) in “physchem” (pH 6.5, aqueous buffer) and 0.53 µg/mL (≈ 0.549 µM) in the data set “physchem” (pH 7.4, aqueous buffer).

Poly(butyl methacrylate) [PBMA]: the “monocyte adherence, fold induction over non-stimulated, negative control cells” value with Monocytic U937 cells is 12.6 fold.
